Experimental data taken from ChEMBL document CHEMBL4340578, “11-Aminostrychnine and N-(Strychnine-11-yl)propionamide: Synthesis, Configuration, and Pharmacological Evaluation at Glycine Receptors” (J Nat Prod, 2019).

Key:
[1] = molecular target: T1, Glycine receptor subunit alpha-1 (Homo sapiens, UniProt P23415); assay: Displacement of [3H]strychnine from human glycine receptor subunit alpha-1 expressed in HEK293 cell membranes
T1 sequence (P23415 whole entry): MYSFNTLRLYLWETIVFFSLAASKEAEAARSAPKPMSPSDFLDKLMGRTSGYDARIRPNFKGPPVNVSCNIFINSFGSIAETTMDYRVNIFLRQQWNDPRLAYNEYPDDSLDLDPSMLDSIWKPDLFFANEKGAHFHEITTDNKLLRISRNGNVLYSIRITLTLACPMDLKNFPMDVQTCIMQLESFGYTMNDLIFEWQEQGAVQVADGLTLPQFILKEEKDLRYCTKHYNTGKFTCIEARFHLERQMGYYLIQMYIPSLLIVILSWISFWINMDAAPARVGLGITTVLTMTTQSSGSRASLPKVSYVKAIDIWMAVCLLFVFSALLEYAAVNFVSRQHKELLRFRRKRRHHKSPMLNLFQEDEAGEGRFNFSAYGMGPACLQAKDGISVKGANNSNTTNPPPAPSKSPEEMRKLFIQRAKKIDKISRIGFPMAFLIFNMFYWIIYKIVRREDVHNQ

[2] = molecular target: T1, Glycine receptor subunit alpha-1; assay: Antagonist activity at human glycine receptor subunit alpha-1 expressed in human tsA201 cells assessed as reduction in glycine-induced response by fluorescence-based FLIPR membrane potential blue assay; format: cell-based
[3] = molecular target: T2, Glycine receptor (alpha-1/beta) (Homo sapiens, UniProt P23415+P48167); assay: Antagonist activity at human glycine receptor subunit alpha-1beta expressed in human tsA201 cells assessed as reduction in glycine-induced response by fluorescence-based FLIPR membrane potential blue assay; format: cell-based
[4] = molecular target: T1, Glycine receptor subunit alpha-1; assay: Antagonist activity at human glycine receptor subunit alpha-1 expressed in HEK293 cells assessed as reduction in glycine-induced whole cell currents by patch-clamp technique; format: cell-based
[5] = molecular target: T2, Glycine receptor (alpha-1/beta); assay: Antagonist activity at human glycine receptor subunit alpha-1beta expressed in HEK293 cells assessed as reduction in glycine-induced whole cell currents by patch-clamp technique; format: cell-based

T2 sequence (P48167 whole entry, one chain of several): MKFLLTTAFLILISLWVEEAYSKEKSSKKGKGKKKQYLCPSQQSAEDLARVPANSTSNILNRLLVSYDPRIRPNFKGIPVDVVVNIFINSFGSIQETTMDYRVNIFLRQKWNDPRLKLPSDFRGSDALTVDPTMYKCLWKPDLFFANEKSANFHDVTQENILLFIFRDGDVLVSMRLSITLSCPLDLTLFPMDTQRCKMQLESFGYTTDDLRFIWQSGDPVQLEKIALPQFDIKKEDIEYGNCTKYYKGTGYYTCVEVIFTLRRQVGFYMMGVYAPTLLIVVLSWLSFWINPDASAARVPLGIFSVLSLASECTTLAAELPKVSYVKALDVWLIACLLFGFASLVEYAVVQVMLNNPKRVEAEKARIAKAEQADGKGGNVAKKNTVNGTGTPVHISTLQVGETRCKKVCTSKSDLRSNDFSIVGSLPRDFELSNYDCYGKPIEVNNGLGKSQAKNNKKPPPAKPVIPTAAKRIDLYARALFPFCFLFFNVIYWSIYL

| SMILES | Ki [1] | IC50 [2] | IC50 [3] | IC50 [4] | IC50 [5] |
| --- | --- | --- | --- | --- | --- |
| N[C@@H]1C(=O)N2c3ccccc3[C@@]34CCN5CC6=CCO[C@@H]1[C@@H]([C@H]23)[C@H]6C[C@H]54 | 741 nM | 1000 nM | 7700 nM | 194 nM | – |
| CCC(=O)N[C@@H]1C(=O)N2c3ccccc3[C@@]34CCN5CC6=CCO[C@@H]1[C@@H]([C@H]23)[C@H]6C[C@H]54 | 91 nM | 710 nM | 2200 nM | 173 nM | 147 nM |
| O=C1C[C@@H]2OCC=C3CN4CC[C@]56c7ccccc7N1[C@H]5[C@H]2[C@H]3C[C@H]46 [STRYCHNINE] | 123 nM | 150 nM | 510 nM | – | – |
